Results as given in patent publication US20090246212A1, “DEVELOPMENT OF METHOD FOR SCREENING FOR DRUG CAPABLE OF IMPROVING PRODUCTION OF REGULATORY T CELLS AND METHOD FOR PRODUCING REGULATORY T CELLS USING IMMUNOSUPPRESSIVE MACROLIDE ANTIBIOTIC” (KYOTO UNIVERSITY, priority 2005, published 2009).

What was measured:
[1] = tested on: CD45RA^+CD25^−CD4^+ T cell line; test: Mixed lymphocyte reaction with trans-well, rapamycin-cultured CD45RA^+CD25^−CD4^+ T cell line; assay type: cell-based, human; conditions: rapamycin 20 nM from day 40
Method: CD45RA^+CD25^+CD4^+ T cells or CD45RA^+CD25^−CD4^+ T cells in human peripheral blood separated in the same manner as Example 1 (5×10̂4 cells/well) were stimulated with anti-human CD3 and CD28 conjugate beads in a ratio of 4 beads per cell in a 96-well round-bottomed culture plate containing 200 μl per well of a proliferation medium (AlyS505N (produced by Cell Science & Technology Institute) supplemented with 2% human AB serum) in the presence of human IL-2 (1000 U/ml, produced by Cell Science & Technology Institute). Rapamycin (20 nM, produced by Sigma) was added to the medium 40 days after the start of cultivation. Every 3 to 4 days, half of the medium was replaced with a fresh proliferation medium containing IL-2. If necessary, the cells were separated and repeatedly re-stimulated with anti-CD3/CD28 antibody conjugate beads every 10 to 14 days. Fifty days after the start of cultivation, the cells were collected and used for functional assay.
Total CD4^+ T cells in peripheral blood were isolated in the same manner as Example 1. […] The culture product was collected, and [3H] thymidine uptake was measured using 1450 Microbeta TriLux (Wallac).

Candida albicans = conditions: both in vitro and in vivo, particularly against Candida albicans; cited from earlier work

For `CO[C@H]1C[C@@H]2CC[C@@H](C)[C@@](O)(O2)C(=O)C(=O)N2CCCC[C@H]2C(=O)O[C@H]([C@H](C)C[C@@H]2CC[C@@H](O)[C@H](OC)C2)CC(=O)[C@H](C)/C=C(\C)[C@@H](O)[C@@H](OC)C(=O)[C@H](C)C[C@H](C)/C=C/C=C/C=C/1C` [rapamycin], the “T cell line's effect on proliferation of total CD4^+ T cells” value ([1]; conditions that allow cell contact) is listed as “strongly suppressed”, the “suppression of the proliferation of total CD4^+ T cells by the T cell line” value ([1]; contact blocked with the trans-well) is listed as “continued to suppress” and the antifungal activity (Candida albicans) is listed as “possess antifungal activity”.
